Measurements taken from ChEMBL document CHEMBL6134801, “SMARCA2 protein: Structure, function and perspectives of drug design” (Eur J Med Chem, 2025).

Each molecule was assayed against T1, SWI/SNF-related matrix-associated actin-dependent regulator of chromatin subfamily A member 2 (Homo sapiens, UniProt P51531) (assay: Induction of thermal stabilization of SMARCA2 (unknown origin) assessed as change in melting temperature by fluorescence based thermal shift assay).
T1 sequence (P51531 whole entry): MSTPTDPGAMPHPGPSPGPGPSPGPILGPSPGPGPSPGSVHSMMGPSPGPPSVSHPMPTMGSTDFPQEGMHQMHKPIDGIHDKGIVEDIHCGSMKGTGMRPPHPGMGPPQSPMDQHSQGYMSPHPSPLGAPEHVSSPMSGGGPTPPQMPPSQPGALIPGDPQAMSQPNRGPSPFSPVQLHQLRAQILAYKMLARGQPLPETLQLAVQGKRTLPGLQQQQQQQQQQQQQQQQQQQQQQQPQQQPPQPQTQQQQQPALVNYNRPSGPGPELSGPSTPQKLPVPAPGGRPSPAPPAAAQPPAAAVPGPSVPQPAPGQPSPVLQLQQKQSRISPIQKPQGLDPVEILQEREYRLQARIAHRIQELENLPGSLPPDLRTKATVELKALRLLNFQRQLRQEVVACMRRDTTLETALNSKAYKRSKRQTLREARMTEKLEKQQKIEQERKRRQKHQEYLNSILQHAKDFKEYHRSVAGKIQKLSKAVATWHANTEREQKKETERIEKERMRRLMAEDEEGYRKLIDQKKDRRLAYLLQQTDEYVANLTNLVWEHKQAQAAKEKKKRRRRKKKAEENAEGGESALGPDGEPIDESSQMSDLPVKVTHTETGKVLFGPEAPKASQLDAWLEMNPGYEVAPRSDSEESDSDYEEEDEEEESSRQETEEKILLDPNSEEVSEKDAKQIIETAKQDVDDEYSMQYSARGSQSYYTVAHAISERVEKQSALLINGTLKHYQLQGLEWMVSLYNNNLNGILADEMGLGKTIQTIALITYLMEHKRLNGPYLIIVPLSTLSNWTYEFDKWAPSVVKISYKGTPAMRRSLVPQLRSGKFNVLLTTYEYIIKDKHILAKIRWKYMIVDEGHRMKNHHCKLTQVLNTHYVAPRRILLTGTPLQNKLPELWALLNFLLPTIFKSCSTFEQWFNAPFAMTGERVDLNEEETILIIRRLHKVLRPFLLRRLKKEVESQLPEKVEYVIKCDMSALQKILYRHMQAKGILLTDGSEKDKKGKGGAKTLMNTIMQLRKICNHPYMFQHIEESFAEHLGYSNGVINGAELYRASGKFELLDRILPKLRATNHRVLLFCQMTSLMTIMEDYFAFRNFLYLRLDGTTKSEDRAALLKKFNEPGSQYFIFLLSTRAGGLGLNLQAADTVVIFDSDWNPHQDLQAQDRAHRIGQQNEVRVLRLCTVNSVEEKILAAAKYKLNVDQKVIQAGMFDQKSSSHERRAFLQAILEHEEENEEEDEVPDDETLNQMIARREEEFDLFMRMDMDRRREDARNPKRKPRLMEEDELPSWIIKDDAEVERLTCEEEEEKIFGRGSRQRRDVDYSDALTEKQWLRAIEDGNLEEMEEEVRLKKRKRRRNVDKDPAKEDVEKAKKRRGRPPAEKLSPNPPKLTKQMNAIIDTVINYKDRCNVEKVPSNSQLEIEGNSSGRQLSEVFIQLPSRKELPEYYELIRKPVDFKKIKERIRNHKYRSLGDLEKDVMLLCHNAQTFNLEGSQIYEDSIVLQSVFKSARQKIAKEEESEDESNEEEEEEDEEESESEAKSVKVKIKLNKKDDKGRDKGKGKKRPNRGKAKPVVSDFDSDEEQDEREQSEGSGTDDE

Structure (SMILES)	ΔTm
O=C(O)c1ccccc1O	1.3 °C

Each molecule was assayed against T1, SWI/SNF-related matrix-associated actin-dependent regulator of chromatin subfamily A member 2 (assay: Inhibition of SMARCA2 (unknown origin)).

Structure (SMILES)	IC50
COc1cc(CNCc2ccccn2)ccc1OCc1cccs1	17 µM
COc1cc(CNCc2ccccn2)cc(Cl)c1OCc1ccc(Cl)cc1Cl	9.1 µM
COc1cc(CNCc2ccccn2)cc(Cl)c1OCc1ccc(Cl)cc1	30.2 µM
COc1cc(CNCc2ccccn2)ccc1OCc1cccc(Cl)c1	9.2 µM
COc1cc(CNCc2ccccn2)ccc1OCc1ccccc1F	9 µM
